Laboratory results reported in patent publication US6624146B1, “Pharmaceutical compositions containing fibroblast growth factor-related peptides” (Agency of Industrial Science and Technology, priority 1998, dated 2003).

Assays:
[1] = Weight-reducing effect: change in body weight the day after injection into the cerebral ventricles; type: in vivo, Wistar rats
Method: This peptide was dissolved in physiological saline to prepare a 2.6 pmol/μl peptide-containing injection solution. Five μl of the injection solution (containing 13 pmol peptide) was administered into the cerebral ventricles of 10-week-old male Wistar rats, which were weighed on the next day to calculate amounts of change in weight prior to and subsequent to injection.
On the other hand, 5 μl physiological saline was administered to rats as a control in the same manner as described above, and 2.6 pmol/μl FGF-containing injection solution was administered to rats as a comparative example in the same manner as described above. Each rat was weighed on the next day to calculate amounts of change in weight prior to and subsequent to injection.

[2] = Food and water intake inhibitory effects 12 hours after injection into the cerebral ventricles; type: in vivo, Wistar rats
Method: In the same manner as in example 1, the peptide […]Try-Lys-Lys-Pro-Lys-Leu (SEQ ID NO:3) was synthesized. This peptide was dissolved in physiological saline to prepare a 2.6 pmol/μl peptide-containing injection solution. Five μl of the injection solution (containing 13 pmol peptide) was administered in the cerebral ventricles of 10-week old male Wistar rats, and the food and water intake level were measured 12 hours after administration to compare with those in the same period of the day prior to administration.
On the other hand, 5 μl physiological saline was administered as a control in the same manner as described above, and 2.6 pmol/μl FGF-containing injection solution was administered as a comparative example in the same manner as described above. Food and water intake levels were measured respectively 12 hours after administration, and were compared to those in the same period of the day prior to administration to calculate amounts of change in food and water intake.

[3] = 13 pmol into the cerebral ventricles, 12 hours, vs saline control
[4] = 10-week-old male Wistar rats, 13 pmol/5 μl into the cerebral ventricles, 12 hours after administration vs same period of the day prior

Substance: Ala-Ala-Val-Ala-Leu-Leu-Pro-Ala-Val-Leu-Leu-Ala-Leu-Leu-Ala-Val-Ala-Ala-Ala-Asn-Try-Lys-Lys-Pro-Lys-Leu (AAVALLPAVLLALLAVAAANYKKPKL; Derivative of partial peptide of fibroblast growth factors)
- Weights of the rats compared to physiological saline control (in words) ([1]; 13 pmol into the cerebral ventricles, next day, vs saline control): significantly reduced
- Amount of change in weight ([1]; 10-week-old male Wistar rats, 13 pmol/5 μl into the cerebral ventricles, weighed on the next day, prior vs subsequent to injection): -5.3 g
- Food intake level compared to physiological saline control (in words) [2, 3]: significantly reduced
- Water intake level compared to physiological saline control (in words) [2, 3]: significantly reduced
- Amount of change in food intake [2, 4]: -4.8 g
- Amount of change in water intake [2, 4]: -8.4 mL
